# Test results taken from patent US20110142842A1, “POLYPEPTIDES” (Medinnova AS, priority 2007, published 2011).
# “And” between values parts separate entries of the source, which are not always exact repeats. Identical values can stand only once. Like-named read-outs stand apart in the source and are kept apart here.
# Columns and labels:
# [1] = system: autologous responder cells (monocyte-depleted PBMC) from HLA-A*0201-negative donors; test: Induction of pentamer positive CD8+ T cells by peptide-pulsed HLA-A*0201-transfected moDC (Example 8); type: cell-based, human; details: for Day 12 % pent+/CD8+: day 12 of co-culture; for Day 19 % pent+/CD8+: day 19 of co-culture, after restimulation; for Day 12 Donors / Day 19 Donors: donors with positive response / donors tested
# Description: MoDC transfected with HLA-A*0201 mRNA were harvested 18 hours after transfection and resuspended in 1-2 ml of serum-free DC-medium containing 50 μg/ml peptide, such as MART-1 or peptide #19. The cells were incubated at 37° C., 5% CO2 for 4 hours, then washed once in serum-free RPMI.
# Stimulator and responder cells were seeded at a stimulator to responder (S:R) ratio of 1:10, with 3.0×10^6 responders per well in serum-free DC medium containing 10 ng/ml IL-7 (PeproTech EC Ltd.), 50 pg/ml IL-12 (PeproTech EC Ltd.), and PPD at 1 μg/ml.
# On day 12 the responder cells were harvested and analyzed for the presence of pentamer positive cells. The cells were either sorted or restimulated.
# Restimulation was done with autologous EBV-LCL transfected with HLA-A*0201 mRNA 12-24 hours prior to stimulation, harvested and resuspended in 1-2 ml of serum-free X-Vivo 20 (Cambrex) containing the same peptide as added on day 0 at 20 μg/ml, and incubated for 4 hours at 37° C., 5% CO2. Following incubation, the EBV-LCL were washed once in serum-free RPMI.
# From day 12 of co-culture with stimulator cells, the responders were harvested, counted and analyzed for the presence of pentamer positive cells weekly. The responder cells were either restimulated, as described above, or the pentamer positive cells were sorted and expanded as described below.
# Monocyte-derived dendritic cells (moDC) from HLA-A*0201-negative donors were transfected with HLA-A*0201 mRNA after maturation. 18-24 hours post-transfection the cells were pulsed with the peptides indicated in Table 2 for four hours, before co-culturing them with autologous responder cells (monocyte-depleted PBMC). On day 12 and day 19 and in some cases at day 26 of co-culture, the cells were harvested, stained with relevant peptide-MHC-pentamer and analyzed by flow cytometry. The percentage of pentamer positive cells was calculated by dividing the number of pentamer positive cells by the number of CD8+ cells. On day 12 and day 19, the cells were restimulated with autologous EBV-cells that were transfected with HLA-A*0201 mRNA and loaded for four hours with the relevant peptides indicated in Table 2.
# [2] = system: CD8+ T cells from HLA-A*0201 negative donors; test: Induction of allo-restricted pentamer+ T cells by peptide-pulsed A2-moDC (Example 9); type: cell-based, human; details: three donors respectively, 19 days of culture
# Description: Mature moDCs were harvested 18 hours after transfection with HLA-A*0201 mRNA, pulsed with 50 μg/ml MART-1 peptide or CD339-17 peptide for 4 hours, washed and co-cultured with thawed, non-adherent cells (see above) at a ratio of 1:10 in CellGro DC medium in the presence of 10 ng/ml IL-7 (PeproTech EC Ltd.) and 50 pg/ml IL-12 (PeproTech EC Ltd.), with the addition of 10 ng/ml IL-7 on day 7. Cells were harvested day 12 and analyzed for the presence of pentamer^+ cells. The co-cultures stimulated with the CD339-17 peptide were re-stimulated on day 12 with HLA-A*0201 transfected autologous EBV-LCL for an additional 7 days before harvest.
# (§1) Co-cultured cells were harvested and stained with A2/MART-1 pentamer or A2/CD33 pentamer, fluorotag and anti-CD8 according to the manufacturers' instructions. Sorting was performed by flow cytometry (FACS Aria Cell sorter, BD Biosciences, San Jose, Calif.) or by magnetic beads to a purity of >98%. Pentamer^+ cells labelled with fluorotag conjugated to PE were isolated using MACS Anti-PE MicroBeads (Miltenyi Biotec, Bergisch Gladbach, Germany) followed by separation over two subsequent MACS MS Columns (Miltenyi Biotec).
# HLA-A*0201 = HLA-A*0201 (Homo sapiens, UniProt P04439, D140Y/D185E/D98H/E176V/E277Q/G131W/G231S/I119V/I121R/I166T/I218V/L300P/L318F/N151K/N90K/P208A/P217A/Q86G/Q94H/R138H/R169H/T345S); test: REVEAL MHC molecule binding assay (ProImmune)
# [3] = system: CD8+ T cells from HLA-A*0201 negative donors; test: Induction of A2/CD20 pentamer+ T cells by HLA-A*0201-transfected peptide-pulsed moDC (Example 10); type: cell-based, human
# Description: Mature moDCs were harvested 18 hours after transfection with HLA-A*0201 mRNA (HLA-A*0201 negative donors), or left untransfected (HLA-A*0201 positive donors), pulsed with 50 μg/ml peptide for 4 hours, irradiated (25Gy), washed and co-cultured with thawed, autologous, non-adherent cells at a ratio of 1:10 in CeliGro DC medium in the presence of 10 ng/ml IL-7 (PeproTech EC Ltd.), 50 pg/ml IL-12 (PeproTech EC Ltd.) and 1 μg/ml purified protein derivative-1 (gift from Prof. L. Sollid's lab, Rikshospitalet, Oslo) with the addition of 10 ng/ml IL-7 on day 7. Cells were analyzed for the presence of pentamer^+ cells, harvested and re-stimulated on day 12 with HLA-A*0201-transfected, peptide-pulsed autologous EBV-LCL. Cells were co-cultured in X-vivo 20 (Lonza, Verviers, Belgium) with 5% pooled human serum, 10 U/ml IL-2 (R&D systems, Minneapolis, Minn.) was added on day 14 and the cells harvested for cell sorting day 19.
# as §1, with “Harvested” for “Co-cultured”, “were” for “were harvested and”, “A2/CD20” for “A2/MART-1 pentamer or A2/CD33”, “anti-PE” for “Anti-PE”
# [4] = system: myelo-monocytic leukemia cell line THP-1; test: IFN-γ production and CD107a/b mobilization, peptide-loaded targets; type: cell-based, human; details: THP-1 loaded with peptide and washed, p=0.016, n=4
# [5] = day 26 per footnote c, printed in Day 19 column
substance,measurement,setting,value
"ALAVISFLL (homo sapiens) [Peptide 114, from CD7]",Day 12 % pent+/CD8+,[1],0%
same,Day 19 % pent+/CD8+,[1],0%
same,Day 12 Donors,[1],0/2
same,Day 19 Donors,[1],0/2
"ALPAALAVI (homo sapiens) [Peptide 127, from CD7]",Day 12 % pent+/CD8+,[1],0%
same,Day 19 % pent+/CD8+,[1],0.04%
same,Day 12 Donors,[1],0/2
same,Day 19 Donors,[1],1/2
ALYDKTKRI (homo sapiens) [Peptide 115],Day 12 % pent+/CD8+,[1],0%
same,Day 19 % pent+/CD8+,[1],0%
same,Day 12 Donors,[1],0/2
same,Day 19 Donors,[1],0/2
"CD339-17: peptide derived from the CD33 antigen, amino acid sequence 9-17, HLA-A*0201-binding candidate (LLWAGALAM; UniProt P20138 9-17, looked up, fragment)",frequencies of pentamer+ cells,[2],0.13% and 0.32% and 0.55%
"FLDCQIHRV (homo sapiens) [Peptide 7, from CD127]",Day 12 % pent+/CD8+,[1],0%
same,Day 19 % pent+/CD8+,[1],0%
same,Day 12 Donors,[1],0/2
same,Day 19 Donors,[1],0/2
"FLLLTISLL (homo sapiens) [Peptide 88, from CD52]",Day 12 % pent+/CD8+,[1],0%
same,Day 19 % pent+/CD8+,[1],0.08% and 0%
same,Day 12 Donors,[1],0/2 and 0/3
same,Day 19 Donors,[1],2/3 and 0/2
FLYGVILTV (homo sapiens) [Peptide 131],% Pass/fail control,HLA-A*0201,257.0%
"FVANAIIHL (homo sapiens) [Peptide 111, from CD52]",Day 12 % pent+/CD8+,[1],0%
same,Day 19 % pent+/CD8+,[1],0%
same,Day 12 Donors,[1],0/2
same,Day 19 Donors,[1],0/2
"ILFAFVSSV (homo sapiens) [Peptide 25, from FLT3]",Day 12 % pent+/CD8+,[1],0%
same,Day 19 % pent+/CD8+,[1],0%
same,Day 12 Donors,[1],1/2
same,Day 19 Donors,[1],0/2
"KIVEWDWKI (homo sapiens) [Peptide 109, from CD48]",Day 12 % pent+/CD8+,[1],0.03%
same,Day 19 % pent+/CD8+,[1],0.05%
same,Day 12 Donors,[1],1/2
same,Day 19 Donors,[1],1/2
"KLGGDLLRA (homo sapiens) [Peptide 129, from CD18]",Day 12 % pent+/CD8+,[1],0%
same,Day 19 % pent+/CD8+,[1],0%
same,Day 12 Donors,[1],0/2
same,Day 19 Donors,[1],0/2
"KLMSPKLYV (homo sapiens) [Peptide 55, from CD19]",Day 12 % pent+/CD8+,[1],0.03%
same,Day 19 % pent+/CD8+,[1],0.05%
same,Day 12 Donors,[1],1/2
same,Day 19 Donors,[1],1/2
"LIQPFMFRL (homo sapiens) [Peptide 84, from MPO]",Day 12 % pent+/CD8+,[1],0%
same,Day 19 % pent+/CD8+,[1],0%
same,Day 12 Donors,[1],0/5
same,Day 19 Donors,[1],0/4
"LLFLTPMEV (homo sapiens) [Peptide 108, from CD19]",Day 12 % pent+/CD8+,[1],0.03%
same,Day 19 % pent+/CD8+,[1],0.09%
same,Day 12 Donors,[1],1/2
same,Day 19 Donors,[1],1/2
"LLLPLLLAL (homo sapiens) [Peptide 28, from CD7]",Day 12 % pent+/CD8+,[1],0.01%
same,Day 19 % pent+/CD8+,[1],0.19%
same,Day 12 Donors,[1],1/2
same,Day 19 Donors,[1],1/2
"LLLTISLLV (homo sapiens) [Peptide 81, from CD52]",Day 12 % pent+/CD8+,[1],0%
same,Day 19 % pent+/CD8+,[1],0.03%
same,Day 12 Donors,[1],0/2
same,Day 19 Donors,[1],1/2
"LLQRPGLQL (homo sapiens) [Peptide 126, from CD64]",Day 12 % pent+/CD8+,[1],0.01%
same,Day 19 % pent+/CD8+,[1],0.06%
same,Day 12 Donors,[1],1/2
same,Day 19 Donors,[1],1/2
"LLWAGALAM (homo sapiens) [Peptide 86, from CD33]",Day 12 % pent+/CD8+,[1],0.14%
same,Day 19 % pent+/CD8+,[1],0.35%
same,Day 12 Donors,[1],2/4
same,Day 19 Donors,[1],4/6
"LMGTLIAKV (homo sapiens) [Peptide 83, from HA-1]",Day 12 % pent+/CD8+,[1],0%
same,Day 19 % pent+/CD8+,[1],0%
same,Day 12 Donors,[1],0/2
same,Day 19 Donors,[1],0/2
"LVAPRFLEV (homo sapiens) [Peptide 85, from CD50]",Day 12 % pent+/CD8+,[1],0.13%
same,Day 19 % pent+/CD8+,[1],0.30%
same,Day 12 Donors,[1],1/4
same,Day 19 Donors,[1],2/5
"RLYQFLLDL (homo sapiens) [Peptide 66, from PU.1]",Day 12 % pent+/CD8+,[1],0%
same,Day 19 % pent+/CD8+,[1],0.03%
same,Day 12 Donors,[1],0/2
same,Day 19 Donors,[1],1/2
"SLFLGILSV (homo sapiens) [Peptide 19, from CD20]",donors with positive cells,[3]; day 12,5 of 6
same,median frequency of pentamer positive cells of CD8+ T cells,[3]; day 12,0.19%
same,range of frequency of pentamer positive cells of CD8+ T cells,[3]; day 12,0-0.31%
same,donors with pentamer positive cells,[3]; day 19,6/6
same,median frequency of pentamer positive cells of CD8+ T cells,"[3]; day 19, after re-stimulation",0.57%
same,range of frequency of pentamer positive cells of CD8+ T cells,"[3]; day 19, after re-stimulation",0.12-2.79%
same,peptide concentration at which increase in frequency of activated T cells reached statistical significance,[4],100 nM
"SLWRRPFNV (homo sapiens) [Peptide 22, from MPO]",Day 12 % pent+/CD8+,[1],0%
same,Day 19 % pent+/CD8+,[1],0.09%
same,Day 12 Donors,[1],0/2
same,Day 19 Donors,[1],1/2
"SMFHVTLKI (homo sapiens) [Peptide 128, from CLL-1]",% pent+/CD8+ (results d26),[1]; [5],0.08%
same,Donors (results d26),[1]; [5],1/3
"SMLDDLRNV (homo sapiens) [Peptide 24, from CD18]",Day 12 % pent+/CD8+,[1],0%
same,Day 19 % pent+/CD8+,[1],0.05%
same,Day 12 Donors,[1],0/2
same,Day 19 Donors,[1],1/2
"SVDPRIANV [139] (SLDPRIANV; homo sapiens) [Peptide 139, modified peptide, MPO]",% Pass/fail control,HLA-A*0201; level of binding relative to pass/fail control binder designated 100%,231.5%
"VLWHWLLRT (homo sapiens) [Peptide 105, from CD19]",Day 12 % pent+/CD8+,[1],0%
same,Day 19 % pent+/CD8+,[1],0.19%
same,Day 12 Donors,[1],0/2
same,Day 19 Donors,[1],4/6
"YLGYTVTWL (homo sapiens) [Peptide 93, from CD11a]",Day 12 % pent+/CD8+,[1],0.02%
same,Day 19 % pent+/CD8+,[1],0.06%
same,Day 12 Donors,[1],1/2
same,Day 19 Donors,[1],2/2
"YLHVALDLL (homo sapiens) [Peptide 107, from MPO]",Day 12 % pent+/CD8+,[1],0%
same,Day 19 % pent+/CD8+,[1],0.01%
same,Day 12 Donors,[1],0/2
same,Day 19 Donors,[1],1/2
